# Patent US10702543B2, “Intranuclear protein transduction through a nucleoside salvage pathway” (The United States Government as represented by The …, priority 2007, dated 2020)
# Tests used:
# ENT2 [1] = target: T1, ENT2 (Homo sapiens, UniProt Q14542); details: read-out: Ki of NBMPR for ENT2; Ward et al., J. Biol. Chem. 2000; cited from earlier work
# T1 sequence (Q14542 1-456): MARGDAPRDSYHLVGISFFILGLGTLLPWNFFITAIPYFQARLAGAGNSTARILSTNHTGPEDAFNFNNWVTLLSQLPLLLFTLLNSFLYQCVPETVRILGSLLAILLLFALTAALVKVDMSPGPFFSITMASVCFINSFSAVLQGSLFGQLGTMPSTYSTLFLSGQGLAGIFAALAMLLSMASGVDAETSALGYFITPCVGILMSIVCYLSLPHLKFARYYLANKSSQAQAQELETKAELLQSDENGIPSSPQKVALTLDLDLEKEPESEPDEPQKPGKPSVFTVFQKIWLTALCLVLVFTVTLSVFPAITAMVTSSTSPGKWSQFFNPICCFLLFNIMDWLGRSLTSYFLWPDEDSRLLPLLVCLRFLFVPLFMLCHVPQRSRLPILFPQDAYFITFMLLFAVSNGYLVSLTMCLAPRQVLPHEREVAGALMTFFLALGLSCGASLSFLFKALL
# [2] = system: ENT subtype equilibrative, insensitive (ei); details: low concentrations (e.g., <1 μM) of NBMPR; cited from earlier work
# ENT2 [3] = target: T1, ENT2; experiment: Inhibition of ENT2 by NBMPR (Ward et al.); assay type: biochemical
# ENT4 = target: T2, ENT4 (Homo sapiens, UniProt Q7RTT9); details: cited from earlier work
# T2 sequence (Q7RTT9 1-530): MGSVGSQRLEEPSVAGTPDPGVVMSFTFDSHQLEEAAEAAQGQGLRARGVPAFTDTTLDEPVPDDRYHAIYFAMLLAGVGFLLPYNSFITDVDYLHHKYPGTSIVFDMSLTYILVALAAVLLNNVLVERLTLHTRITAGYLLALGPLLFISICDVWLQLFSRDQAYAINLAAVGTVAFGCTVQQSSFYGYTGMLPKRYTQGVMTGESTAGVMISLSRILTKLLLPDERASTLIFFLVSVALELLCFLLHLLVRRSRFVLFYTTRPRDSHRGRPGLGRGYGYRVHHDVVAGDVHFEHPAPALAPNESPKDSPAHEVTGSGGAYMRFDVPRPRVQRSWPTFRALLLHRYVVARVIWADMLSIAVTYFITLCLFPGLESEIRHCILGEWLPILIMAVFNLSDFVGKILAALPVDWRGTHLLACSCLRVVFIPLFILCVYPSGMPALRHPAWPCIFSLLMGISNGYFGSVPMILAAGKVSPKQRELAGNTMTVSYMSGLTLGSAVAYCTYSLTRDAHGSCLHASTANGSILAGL
# cells in tissue culture = details: cited from earlier work
compound,measurement,setting,value
"O=[N+]([O-])c1ccc(CSc2ncnc3c2ncn3C2OC(CO)C(O)C2O)cc1 (stereo not drawn) [NBMPR, Nitrobenzylmercaptopurine riboside]",Ki,ENT2 [1],2800 nM
same,effect of NBMPR on the ei subtype,[2],unaffected
same,ENT2 activity,ENT2 [3]; at 10 μM NBMPR,retains moderate activity
same,expected suppression of ENT2 activity,ENT2 [3]; by 10 μM NBMPR,> 50%
same,inhibition of ENT4 by NBMPR,ENT4,weakly inhibited
"mAb 3E10: monoclonal anti-DNA antibody produced by hybridoma 3E10, ATCC accession number PTA-2439",harm to cells that it penetrates,cells in tissue culture,no harm
